# US7687083B2, “Pharmaceutical compositions comprising old man's beard (Usnea barbata) and St. John's wort (Hypericum perforatum) and their use” (Universitatsklinikum Freiburg, priority 2004, dated 2010)
# Tests used:
# Pityrosporon ovale = assay: oil submersion test on Sabouraud agar with scales of patients with seborrhoeal eczema; assay type: cell-based; conditions: 1% in olive oil; incubation for 4 days
# Experimental: In addition, the efficacy against pityrosporon of 1% Usnea extract in olive oil in comparison with 1% amphotericin was investigated. For this purpose, scales of patients with seborrhoeal eczema were applied to Sabouraud agar and covered with a layer of the oil. After incubation for 4 days in an incubator, the number of colony-forming units was counted.
# UV erythema test = assay type: in vivo, healthy test persons; conditions: 1.5 times MED UVB, applied in Finn chambers for 24 hours; FIG. 5
# Experimental: The minimal erythema dose for UVB was determined in the case of seven healthy test persons. Thereafter, test fields on the back were exposed to 1.5 times the minimal erythema dose (MED). The test substances were applied in Finn chambers for 24 hours. The UV-induced erythema was determined photometrically before exposure and after action of the substances.
# Propionibacterium acnes = assay: agar dilution test (MIC/MBC); assay type: cell-based; conditions: Cutibacterium acnes
# Experimental: The old man's beard CO2 extract (Usnea barbata L.) was tested in the concentrations 1:10, 1:50, 1:100, 1:500 and 1:1000 in the agar dilution test for a number of aerobic and anaerobic bacteria. The pure substance usnic acid was tested in concentrations of 128/64/32/16/8/4/2/1/0.5/0.25 and 0.125 μg/ml. The MIC (minimum inhibitory concentration) is defined as >90% inhibition of bacterial growth after 24 h. The MBC (minimum bactericidal concentration) is defined as >90% inhibition of the growth at 48 h.
smiles,measurement,setting,value
"C[C@@H]1[C@H](O)[C@@H](C)/C=C/C=C/C=C/C=C/C=C/C=C/C=C/[C@H](O[C@@H]2O[C@H](C)[C@@H](O)[C@H](N)[C@@H]2O)C[C@@H]2O[C@](O)(C[C@@H](O)C[C@@H](O)[C@H](O)CC[C@@H](O)C[C@@H](O)CC(=O)O[C@H]1C)C[C@H](O)[C@H]2C(=O)O [1% Amphotericin in olive oil, amphotericin]",growth of the pityrosporon yeast fungi,Pityrosporon ovale,inhibited completely
same,number of colony-forming units,Pityrosporon ovale,1 CFU
CCOC(=O)O[C@]1(C(=O)COC(=O)CC)CC[C@H]2[C@@H]3CCC4=CC(=O)C=C[C@]4(C)[C@H]3[C@@H](O)C[C@@]21C [Prednicarbate],"UV-induced inflammation (erythema, photometric)",UV erythema test,inhibit the UV-induced inflammation
"CC(=O)c1c(O)c(C)c(O)c2c1OC1=CC(=O)C(C(C)=O)C(=O)C12C (centres unmarked) [Usnic acid, usnic acid]",MIC,Propionibacterium acnes; >90% inhibition of bacterial growth after 24 h,1 µg/mL
same,MBC,Propionibacterium acnes; >90% inhibition of the growth at 48 h,4 µg/mL
